Experimental data from patent EP4789665A1, “TREATMENT OF HIS HYPORESPONDERS” (NewAmsterdam Pharma B.V., priority 2021, dated 2023).
Like-named read-outs stand apart in the source and are kept apart here.

Key:
[1] = Phase 2 study: plasma obicetrapib concentrations during PK follow-up after end of treatment; format: in vivo, human
Description: The screening period for this study took up to 2-weeks. Afterwards patients were randomized to placebo, 5 mg obicetrapib or 10 mg obicetrapib for an 8-week treatment period. After the treatment period, patients continued for a 4-week safety follow-up and a 15-week PK follow-up.
(§1) The primary outcome measure was LDL-C (percent change). Secondary outcome measures included ApoB, Non-HDL-C and HDL-C (percent change). The Intent-to-Treat (ITT) Population included all participants randomized into the study. The Modified ITT (mITT) Population included all participants in the ITT Population who receive at least 1 dose of any study drug and have a baseline value for the LDL-C assessment. The Safety Population included all participants who receive at least 1 dose of any study drug. The mITT Population was the primary population for the efficacy analyses. The primary efficacy analysis of the percent change in LDL-C was performed using a mixed model for repeated measures (MMRM) approach. In order to maintain the overall Type I error rate, the secondary efficacy endpoints were tested sequentially at the 0.05 significance level according to the pre-specified order of hierarchy. All safety endpoints were summarized descriptively. No statistical inference was applied to the safety endpoints. Plasma obicetrapib concentrations were summarized with descriptive statistics based on the PK Population.

[2] = biological target: T1, CETP (Homo sapiens, UniProt P11597); conditions: TULIP, cited from earlier work
T1 construct: endogenous in cells; host or cells: trial patients (in vivo, circulating plasma CETP)
T1 sequence (P11597 18-493): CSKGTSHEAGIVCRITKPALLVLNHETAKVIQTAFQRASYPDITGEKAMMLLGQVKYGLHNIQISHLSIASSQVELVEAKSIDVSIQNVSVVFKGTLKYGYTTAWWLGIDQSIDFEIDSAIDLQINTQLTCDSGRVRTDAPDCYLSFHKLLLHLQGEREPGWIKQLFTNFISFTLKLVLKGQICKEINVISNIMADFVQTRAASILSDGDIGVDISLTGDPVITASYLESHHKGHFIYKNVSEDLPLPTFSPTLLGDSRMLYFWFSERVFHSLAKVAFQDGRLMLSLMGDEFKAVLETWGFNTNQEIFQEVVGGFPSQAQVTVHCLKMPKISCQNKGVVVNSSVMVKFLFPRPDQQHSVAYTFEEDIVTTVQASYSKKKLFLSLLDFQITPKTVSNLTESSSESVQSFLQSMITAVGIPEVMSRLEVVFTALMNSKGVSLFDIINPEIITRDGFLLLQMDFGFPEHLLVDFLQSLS

[3] = Phase 2 study of obicetrapib as adjunct to high-intensity statin therapy: safety and tolerability (adverse events, laboratory values, vital signs); format: in vivo, human; conditions: for Neoplasms benign, malignant and unspecified: including cysts and polyps; for AEs, total: subjects (%): safety population
Description: Patients were randomly assigned to receive one of the three treatments investigative treatments. All treatments were to be taken once daily with food for 8 weeks. Safety was assessed throughout the trial by monitoring adverse events and concomitant medication use, 12-lead electrocardiograms (ECGs), vital signs, laboratory safety assessments and physical examinations. Additional assessments included salivary cortisol, plasma aldosterone, high-sensitivity C-reactive protein (hsCRP) and endothelin 1.
Safety and tolerability profiles of obicetrapib assessed by clinical laboratory values and incidence of adverse events (AEs).
as §1

[4] = 5 mg group (N=40), listed as obicetrapib
[5] = 10 mg group (N=40), listed as obicetrapib
[6] = either obicetrapib treatment group (5 mg, 10 mg) compared with placebo

Compound: CCOC(=O)N1c2ccc(C(F)(F)F)cc2[C@@H](N(Cc2cc(C(F)(F)F)cc(C(F)(F)F)c2)c2ncc(OCCCC(=O)O)cn2)C[C@H]1CC [Obicetrapib, (2R,4S)-4-{[3,5-bis(trifluoromethyl)benzyl]-[5-(3-carboxypropoxy)pyrimidin-2-yl]amino}-2-ethyl-6-trifluoromethyl-3,4-dihydro-2H-quinoline-1-carboxylic acid ethyl ester]
- Plasma obicetrapib levels decreased by (median) ([1]; 5 mg group, 4 weeks after the end-of-treatment): 92%
- Plasma obicetrapib levels decreased by (median) ([1]; 5 mg group, 8 weeks after the end-of-treatment): 98%
- Plasma obicetrapib levels decreased by (median) ([1]; 5 mg group, 15 weeks after the end-of-treatment): 99%
- Plasma obicetrapib levels decreased by (median) ([1]; 10 mg group, 4 weeks after the end-of-treatment): 93%
- Plasma obicetrapib levels decreased by (median) ([1]; 10 mg group, 8 weeks after the end-of-treatment): 98%
- Plasma obicetrapib levels decreased by (median) ([1]; 10 mg group, 15 weeks after the end-of-treatment): 99%
- nearly completely cleared from circulation by (time post-treatment) ([1]; after 8 weeks of once daily treatment): 4-8 weeks
- LDL-C reductions ([2]; 1 mg for 12 weeks, mild dyslipidemia): 27%
- LDL-C reductions ([2]; 2.5 mg for 12 weeks, mild dyslipidemia): 33%
- LDL-C reductions ([2]; 5 mg for 12 weeks, mild dyslipidemia): 45%
- incremental LDL-C reduction compared with statin monotherapy ([2]; 10 mg daily with 20 mg atorvastatin or 10 mg rosuvastatin, 12 weeks): up to 50%
- LDL-C reductions ([2]; 10 mg for 12 weeks, mild dyslipidemia): 45%
- LDL-C reductions ([2]; 10 mg obicetrapib plus 10 mg rosuvastatin): 63%
- LDL-C reductions ([2]; 10 mg obicetrapib plus 20 mg atorvastatin): 68%
- Basal cell carcinoma ([3]; 5 mg (n=40)): 0 (0.0) n (%)
- Fatigue ([3]; 5 mg (n=40)): 2 (5.0) n (%)
- Gastrointestinal disorders ([3]; 5 mg (n=40)): 3 (7.5) n (%)
- General disorders and administration site conditions ([3]; 5 mg (n=40)): 3 (7.5) n (%)
- Hypertension ([3]; 5 mg (n=40)): 2 (5.0) n (%)
- Infections and infestations ([3]; 5 mg (n=40)): 1 (2.5) n (%)
- Injury, poisoning and procedural complications ([3]; 5 mg (n=40)): 3 (7.5) n (%)
- Investigations ([3]; 5 mg (n=40)): 2 (5.0) n (%)
- Metabolism and nutrition disorders ([3]; 5 mg (n=40)): 2 (5.0) n (%)
- Muscle spasms ([3]; 5 mg (n=40)): 0 (0.0) n (%)
- Musculoskeletal and connective tissue disorders ([3]; 5 mg (n=40)): 4 (10.0) n (%)
- Nausea ([3]; 5 mg (n=40)): 1 (2.5) n (%)
- Nervous system disorders ([3]; 5 mg (n=40)): 2 (5.0) n (%)
- Respiratory, thoracic and mediastinal disorders ([3]; 5 mg (n=40)): 2 (5.0) n (%)
- Type 2 diabetes mellitus ([3]; 5 mg (n=40)): 2 (5.0) n (%)
- Vascular disorders ([3]; 5 mg (n=40)): 2 (5.0) n (%)
- Neoplasms benign, malignant and unspecified ([3]; 5 mg (n=40)): 0 (0.0) n (%)
- tolerability / safety profile ([3]; 5 mg and 10 mg on top of high intensity statin therapy): well tolerated with a safety profile similar to placebo
- AEs, related: number of events ([3]; 5 mg group (N=40)): 2
- AEs, related: subjects (%) ([3]; 5 mg group (N=40)): 2 (5.0)
- AEs, severe ([3]; 5 mg group (N=40)): 0
- AEs, total: number of events ([3]; 5 mg group (N=40)): 24
- Deaths ([3]; 5 mg group (N=40)): 0
- SAEs, related ([3]; 5 mg group (N=40)): 0
- SAEs, total ([3]; 5 mg group (N=40)): 0
- TEAEs leading to discontinuation of study drug ([3]; 5 mg group (N=40)): 0
- TESAEs leading to discontinuation of study ([3]; 5 mg group (N=40)): 0
- AEs, total: subjects (%) ([3]; 5 mg group (N=40)): 13 (32.5)
- AEs, total: subjects (%) [3, 4]: 15
- AEs, related: subjects (%) [3, 4]: 2
- Basal cell carcinoma ([3]; 10 mg (n=40)): 0 (0.0) n (%)
- Fatigue ([3]; 10 mg (n=40)): 1 (2.5) n (%)
- Gastrointestinal disorders ([3]; 10 mg (n=40)): 0 (0.0) n (%)
- General disorders and administration site conditions ([3]; 10 mg (n=40)): 2 (5.0) n (%)
- Hypertension ([3]; 10 mg (n=40)): 0 (0.0) n (%)
- Infections and infestations ([3]; 10 mg (n=40)): 0 (0.0) n (%)
- Injury, poisoning and procedural complications ([3]; 10 mg (n=40)): 1 (2.5) n (%)
- Investigations ([3]; 10 mg (n=40)): 0 (0.0) n (%)
- Metabolism and nutrition disorders ([3]; 10 mg (n=40)): 0 (0.0) n (%)
- Muscle spasms ([3]; 10 mg (n=40)): 0 (0.0) n (%)
- Musculoskeletal and connective tissue disorders ([3]; 10 mg (n=40)): 4 (10.0) n (%)
- Nausea ([3]; 10 mg (n=40)): 0 (0.0) n (%)
- Nervous system disorders ([3]; 10 mg (n=40)): 2 (5.0) n (%)
- Respiratory, thoracic and mediastinal disorders ([3]; 10 mg (n=40)): 0 (0.0) n (%)
- Type 2 diabetes mellitus ([3]; 10 mg (n=40)): 0 (0.0) n (%)
- Vascular disorders ([3]; 10 mg (n=40)): 0 (0.0) n (%)
- Neoplasms benign, malignant and unspecified ([3]; 10 mg (n=40)): 0 (0.0) n (%)
- AEs, related: number of events ([3]; 10 mg group (N=40)): 1
- AEs, related: subjects (%) ([3]; 10 mg group (N=40)): 1 (2.5)
- AEs, severe ([3]; 10 mg group (N=40)): 0
- AEs, total: number of events ([3]; 10 mg group (N=40)): 11
- Deaths ([3]; 10 mg group (N=40)): 0
- SAEs, related ([3]; 10 mg group (N=40)): 0
- SAEs, total ([3]; 10 mg group (N=40)): 0
- TEAEs leading to discontinuation of study drug ([3]; 10 mg group (N=40)): 0
- TESAEs leading to discontinuation of study ([3]; 10 mg group (N=40)): 0
- AEs, total: subjects (%) ([3]; 10 mg group (N=40)): 8 (20.0)
- AEs, total: subjects (%) [3, 5]: 8
- AEs, related: subjects (%) [3, 5]: 1
- laboratory parameters (chemistry, hematology, urinalysis) [3, 6]: no signals in any laboratory parameters
- vital signs [3, 6]: no changes in vital signs
